Results as given in article PMC9323911, “Comparative Metabolomics Study of the Impact of Articaine and Lidocaine on the Metabolism of SH-SY5Y Neuronal Cells” (Metabolites, 2022).
Structures can show the parent of a compound that is named as a salt. Where two headings read alike, the source gives them in different places.

What was measured:
[1] = tested on: SH-SY5Y human neuroblastoma cells; experiment: resazurin cell viability assay; format: cell-based; conditions: for IC50: Homo sapiens, SH-SY5Y, read-out: IC50 (cell viability)
Method: Undifferentiated SH-SY5Y human neuroblastoma cells (ATCC® CRL-2266) were cultured in DMEM:F12 medium supplemented with 10% FBS and 1% antibiotic (100 IU/mLof penicillin and 100 μg/mL of streptomycin sulfate). Cells were grown in 75 cm^2 bottles and incubated at 37 °C under a humidified atmosphere with 5% CO2 for 48 h, until reaching semiconfluency. All experiments were performed on cells between passages 4 to 8.
To assess cell viability, the resazurin test was used. This assay evaluates the ability of viable cells to reduce resazurin (blue color) to a fluorescent, pink-colored compound, resorufin. Briefly, the cells were plated in a 96-well plate 24 h before treatment, at a density of 4 × 10^4 cells/mL. […] Each LA was solubilized in complete DMEM:F12 medium. Subsequently, the medium was removed, the wells were washed with 5 mM PBS and the cells were incubated with 10% resazurin for 4 h. At the end of this period, the absorbance was measured at 570 nm (λ1) and at 600 nm (λ2) (Multiskan™ FC Microplate Photometer, Thermofisher). The experiment was performed in triplicate and the differences between the two wavelengths (λ1–λ2) were calculated. The results were expressed in % of cell viability in relation to control and analyzed in GraphPad Prism® 6.0.

SH-SY5Y cells [2] = experiment: 1H NMR metabolic profiling of cell aqueous extracts; format: cell-based, human; conditions: for 2-Ketovaline, variation in relation to control / 2-Oxoisoleucine, variation in relation to control / ATP + ADP, variation in relation to control / Alanine, variation in relation to control / Asparagine, variation in relation to control / Aspartate, variation in relation to control / Creatine, variation in relation to control / Cystathionine, variation in relation to control / Formate, variation in relation to control / Glutamate, variation in relation to control / Glutamine, variation in relation to control / Glycerophosphocholine, variation in relation to control / Glycine, variation in relation to control / Histidine, variation in relation to control / Isobutyrate, variation in relation to control / Isoleucine, variation in relation to control / Lactate, variation in relation to control / Leucine, variation in relation to control / NAD+, variation in relation to control / Panthothenic, variation in relation to control / Phenylalanine, variation in relation to control / Phosphocholine, variation in relation to control / Phosphocreatine, variation in relation to control / Proline, variation in relation to control / UDP-GlcNAc, variation in relation to control / Valine, variation in relation to control / beta-Alanine, variation in relation to control / myo-Inositol, variation in relation to control: aqueous extract
Method: (§1) Afterward, the medium was collected and the dishes washed with cold PBS, immediately before the solvent extraction procedure described below. Unexposed cells were used as controls. Each assay comprised duplicates of each condition and three independent assays were performed, giving a total of 6 replicates per condition.
(§2) The culture medium was collected from each plate (including cell-free medium incubated under the same conditions) in conical tubes and centrifuged at 1000× g for 10 min. Furthermore, 300 µL of the supernatant were collected for protein precipitation, as described by Kostidis et al.. Briefly, 600 µL of 100% methanol (v/v) at −80 °C were added to the collected supernatant ([…]). […] The supernatant was transferred to another tube and vacuum dried (SpeedVac, Eppendorf, Hamburg, Germany). For extracting cellular metabolites, a biphasic extraction protocol (methanol:chloroform:water; 1:1:0.7) was used as previously described. The resulting polar extracts were dried under vacuum in a Speedvac concentrator, and the lipophilic extracts were dried under a nitrogen flow. All extracts were stored at −80 °C prior to NMR analysis.
(§3) For NMR analysis, dried aqueous and lipid extracts were dissolved, respectively, in 600 μL of deuterated phosphate buffer (PBS 100 mM, pH 7.4) containing 0.1 mM 3-(trimethylsilyl) propionic acid (TSP-d4), and 600 μL of deuterated chloroform containing 0.03% tetramethylsilane (TMS). […] Two-dimensional NMR spectra, namely, ^1H-^1H TOCSY, J-resolved and ^1H-^13C HSQC spectra, were also recorded for selected samples to aid metabolite identification. Signal assignment was based on matching 1D and 2D spectral information to reference spectra available in Chenomx 9.0 (Edmonton, AB, Canada), BBIOREFCODE-2–0–0 (Bruker Biospin, Rheinstetten, Germany) and HMDB.
Principal Component Analysis (PCA) and Partial Least Squares-Discriminant Analysis (PLS-DA) were applied and the results were visualized through factorial co-ordinates (‘scores’) and factorial contributions (‘loadings’) colored according to variable importance to the projection (VIP). For PLS-DA models, Q^2 and R^2 values, respectively reflecting predictive capability and explained variance, obtained from sevenfold internal cross validation, were used to assess the robustness of group discrimination.
(§4) To provide a quantitative measurement of metabolic variations, spectral integration and total area normalization of selected signals (vide Supplementary Table S1) were carried out in Amix-Viewer 3.9.15 (Bruker Biospin, Rheinstetten, Germany). For each metabolite, the percentage of variation (or fold change) in exposed samples was calculated relative to respective controls, along with the effect size (ES) and statistical significance (p-value). The variations with larger magnitude (|ES| > 0.8) were expressed in a heatmap.

SH-SY5Y cells [3] = experiment: 1H NMR metabolic profiling of culture medium (consumption/excretion); format: cell-based, human; conditions: vs control
Method: as §1, §2, §3, §4

## CCCNC(C)C(=O)Nc1c(C)csc1C(=O)OC (stereo not drawn) [ATC, Articaine hydrochloride]
[1]; 24 h exposure
  IC10 (concentration reducing cell viability by 10%): 1.2 mM
  IC50: 3 ± 0.2 mM
[1]; 20 min, 20 min exposure
  IC50: > 10 mM
[1]; 1 h exposure
  IC50: > 10 mM
[1]; 4 h exposure
  IC50: 5.4 ± 0.3 mM
[1]; shortest exposure durations (20 min and 1 h)
  IC50: > 10 mM
SH-SY5Y cells [2]; IC10, 24 h
  2-Ketovaline, variation in relation to control: 24.7%
  2-Oxoisoleucine, variation in relation to control: 33.8%
  ATP + ADP, variation in relation to control: -8.0%
  Alanine, variation in relation to control: 0.0%
  Asparagine, variation in relation to control: -24.6%
  Aspartate, variation in relation to control: -17.2%
  Creatine, variation in relation to control: 9.0%
  Cystathionine, variation in relation to control: 10.9%
  Formate, variation in relation to control: 0.0%
  Glutamate, variation in relation to control: -6.3%
  Glutamine, variation in relation to control: -10.8%
  Glycerophosphocholine, variation in relation to control: -11.3%
  Glycine, variation in relation to control: 0.0%
  Histidine, variation in relation to control: 29.6%
  Isobutyrate, variation in relation to control: 0.0%
  Isoleucine, variation in relation to control: 30.5%
  Lactate, variation in relation to control: 0.0%
  Leucine, variation in relation to control: 39.9%
  NAD+, variation in relation to control: 0.0%
  Panthothenic, variation in relation to control: 42.7%
  Phenylalanine, variation in relation to control: 43.6%
  Phosphocholine, variation in relation to control: 0.0%
  Phosphocreatine, variation in relation to control: 0.0%
  Proline, variation in relation to control: 0.0%
  UDP-GlcNAc, variation in relation to control: -18.7%
  Valine, variation in relation to control: 27.2%
  beta-Alanine, variation in relation to control: -7.4%
  myo-Inositol, variation in relation to control: -19.0%
SH-SY5Y cells [2]; IC50, 24 h
  2-Ketovaline, variation in relation to control: 28.3%
  2-Oxoisoleucine, variation in relation to control: 34.4%
  ATP + ADP, variation in relation to control: -14.0%
  Alanine, variation in relation to control: 21.3%
  Asparagine, variation in relation to control: 26.5%
  Aspartate, variation in relation to control: 23.7%
  Creatine, variation in relation to control: 14.7%
  Cystathionine, variation in relation to control: 0.0%
  Formate, variation in relation to control: 40.5%
  Glutamate, variation in relation to control: 25.8%
  Glutamine, variation in relation to control: 17.8%
  Glycerophosphocholine, variation in relation to control: -75.7%
  Glycine, variation in relation to control: 42.8%
  Histidine, variation in relation to control: 37.5%
  Isobutyrate, variation in relation to control: -78.2%
  Isoleucine, variation in relation to control: 44.5%
  Lactate, variation in relation to control: -17.5%
  Leucine, variation in relation to control: 60.3%
  NAD+, variation in relation to control: 11.9%
  Panthothenic, variation in relation to control: 40.0%
  Phenylalanine, variation in relation to control: 50.2%
  Phosphocholine, variation in relation to control: 0.0%
  Phosphocreatine, variation in relation to control: -18.9%
  Proline, variation in relation to control: -17.8%
  UDP-GlcNAc, variation in relation to control: -85.9%
  Valine, variation in relation to control: 44.8%
  beta-Alanine, variation in relation to control: -60.7%
  myo-Inositol, variation in relation to control: -42.6%
SH-SY5Y cells [2]; IC50, 24 h, vs control
  intracellular glutamate level (in words): increased
  intracellular phosphocholine level (in words): not altered
SH-SY5Y cells [3]; IC10, 24 h
  pyruvate consumption: increased significantly
SH-SY5Y cells [3]; IC50, 24 h
  pyruvate consumption: no difference to controls
